According to BigSolDB 2.1:

CS(=O)(=O)c1cccc(C[C@H](NC(=O)c2c(Cl)cc3c(c2Cl)CCN(C(=O)c2ccc4ccoc4c2)C3)C(=O)O)c1
solubility (mole fraction) (in PEG-400, 288.15 K): 0.0757
solubility (mole fraction) (in PEG-400, 293.15 K): 0.0767
solubility (mole fraction) (in PEG-400, 298.15 K): 0.0776
solubility (mole fraction) (in PEG-400, 303.15 K): 0.0786
solubility (mole fraction) (in PEG-400, 308.15 K): 0.0796
solubility (mole fraction) (in glycerin, 288.15 K): 0.000104
solubility (mole fraction) (in glycerin, 293.15 K): 0.000118
solubility (mole fraction) (in glycerin, 298.15 K): 0.000133
solubility (mole fraction) (in glycerin, 303.15 K): 0.000151
solubility (mole fraction) (in glycerin, 308.15 K): 0.000167
solubility (mole fraction) (in propylene glycol, 288.15 K): 0.00102
solubility (mole fraction) (in propylene glycol, 293.15 K): 0.00119
solubility (mole fraction) (in propylene glycol, 298.15 K): 0.00138
solubility (mole fraction) (in propylene glycol, 303.15 K): 0.00161
solubility (mole fraction) (in propylene glycol, 308.15 K): 0.00183
solubility (mole fraction) (in transcutol, 288.15 K): 0.015
solubility (mole fraction) (in transcutol, 293.15 K): 0.0159
solubility (mole fraction) (in transcutol, 298.15 K): 0.0168
solubility (mole fraction) (in transcutol, 303.15 K): 0.0178
solubility (mole fraction) (in transcutol, 308.15 K): 0.0187
solubility (mole fraction) (in water, 288.15 K): 1.49e-06
solubility (mole fraction) (in water, 293.15 K): 1.85e-06
solubility (mole fraction) (in water, 298.15 K): 2.31e-06
solubility (mole fraction) (in water, 303.15 K): 2.79e-06
solubility (mole fraction) (in water, 308.15 K): 3.37e-06
